Results from PMC7867324, “Design, Synthesis and Biological Evaluation of New Pyrimidine Derivatives as Anticancer Agents” (Molecules, 2021).
Structures can show the parent of a compound that is named as a salt. Where two headings read alike, the source gives them in different places.

Key:
colon carcinoma HT-29 = experiment: In vitro proliferation assay (sulforhodamine B), HT-29; type: cell-based, human
Description: (§1) The possible antitumoral activity of these new compounds was analyzed by the effects exerted on the proliferation of five human tumor cell lines of different histotype. Therefore, the modifications on cell viability and replication determined by the treatment with each single compound were evaluated. The following human tumor cell lines triple-negative breast cancer MDA-MB231, colon carcinoma HT-29, glioblastoma multiforme U-87 MG, tongue squamous cell carcinoma CAL27 and pharynx squamous cell carcinoma FaDu were treated for 24 and 48 h with 10, 20, 30, 40, 50 and 60 μM of each single compound.
(§2) Anti-proliferative activities are reported in Table 2 (compounds 1b–g, 3) and Table 3 (compounds 2a–f) in comparison with reference compound 1a.
(§3) The following human tumor cell lines were utilized in the present study: glioblastoma multiforme U-87 MG, triple-negative breast cancer MDA-MB231, colon carcinoma HT-29, tongue squamous cell carcinoma CAL27 and pharynx squamous cell carcinoma FaDu, all of which obtained from the American Type Culture Collection (Manassas, VA, USA). In addition, human dermal fibroblast primary cultures (HF) used as control of non-transformed cells, had been previously established in our laboratory.
(§4) The cells were grown at 37 °C and 5% CO2 in Dulbecco’s modified Eagle’s medium or RPMI 1640 medium supplemented with 10% fetal bovine serum, 2 mM glutamine and 50 U/mL penicillin-streptomycin (Sigma-Aldrich).
(§5) All compounds were solubilized in dimethylsulfoxide (DMSO) (Sigma) for a 10 mM stock solution and utilized to final concentrations from 100 nM to 60 μM for 24 and 48 h. Control cells were treated with equivalent amounts of DMSO in every experiment.
(§6) To determine cytotoxicity, a sulforhodamine B colorimetric assay was performed. Cells (1.5 × 10^4) were plated in a 96-well plate, grown for 24 h and then treated with different concentrations of each compound for 24 and 48 h at 37 °C. Cells were then fixed with 50% trichloroacetic acid for 1 h at 4 °C and stained for 30 min at room temperature with 0.4% sulforhodamine B in 1% acetic acid. Excess dye was removed by washing four times with 1% acetic acid. Protein-bound dye was dissolved in 10 mM Tris (pH 10), and optical density was determined at 510 nm using a microplate reader. Each experiment was performed three times and the media was calculated.

[1] = system: glioblastoma multiforme U-87 MG; experiment: In vitro proliferation assay (sulforhodamine B), U-87 MG; type: cell-based, human
Description: as §1, §2, §3, §4, §5, §6

[2] = system: triple-negative breast cancer MDA-MB231; experiment: In vitro proliferation assay (sulforhodamine B), MDA-MB231; type: cell-based, human
Description: as §1, §2, §3, §4, §5, §6

[3] = system: tongue squamous cell carcinoma CAL27; experiment: In vitro proliferation assay (sulforhodamine B), CAL27; type: cell-based, human
Description: as §1, §2, §3, §4, §5, §6

[4] = system: pharynx squamous cell carcinoma FaDu; experiment: In vitro proliferation assay (sulforhodamine B), FaDu; type: cell-based, human
Description: as §1, §2, §3, §4, §5, §6

[5] = system: human dermal fibroblasts (HF); experiment: Cytotoxicity on normal cells (sulforhodamine B), HF; type: cell-based
Description: as §3, §4, §5, §6

[6] = system: five human tumor cell lines (HT-29, U-87 MG, MDA-MB231, CAL27, FaDu); experiment: In vitro proliferation assay, summary over all tested tumor cell lines; type: cell-based; details: for EC50: Homo sapiens, all tested tumor cell lines, read-out: EC50s over the tested cell lines
Description: as §1, §2, §3, §4, §5, §6

[7] = Cytotoxicity on normal cells (sulforhodamine B), HF; type: cell-based, human; details: human, human dermal fibroblast primary cultures (HF), 48 h
Description: as §3, §4, §5, §6

[8] = system: human cancer cells of different histotypes; parameters: method as in PMID 30900116; details: cited from earlier work
[9] = Homo sapiens, HT-29, 48 h, 48 h
[10] = Homo sapiens, MDA-MB-231, 48 h, 48 h
[11] = Homo sapiens, CAL-27, 48 h, 48 h
[12] = Homo sapiens, HT-29, 24 h, 24 h
[13] = Homo sapiens, CAL-27, 24 h, 24 h

Row | SMILES | EC50 (colon carcinoma HT-29; [9]) [µM] | EC50 ([1]; Homo sapiens, U-87 MG, 48 h) [µM] | EC50 [2, 10] [µM] | EC50 [3, 11] [µM] | EC50 ([4]; Homo sapiens, FaDu, 48 h) [µM] | CC50 at 48 h [7] [µM] | EC50 ([6]; time not given) [µM] | EC50 (colon carcinoma HT-29; [12]) [µM] | also measured
1 | CCCN(CCC)c1cc(N)nc(Nc2cccc(Cl)c2)n1 [Compound 1e, N^2-(3-chlorophenyl)-N^4,N^4-dipropylpyrimidine-2,4,6-triamine] |  |  |  |  |  |  |  |  | EC50 (colon carcinoma HT-29; 48 h): 28.5 µM; EC50 ([1]; 48 h): 45.3 µM; EC50 ([2]; 48 h): 34.2 µM; EC50 ([3]; 48 h): 24.7 µM; EC50 ([4]; 48 h): 29.7 µM; CC50 ([5]; 48 h): 68 µM; cytotoxic activity on normal somatic cells, not cytotoxic up to [5]: > 60 µM; EC50 ([6]; 48 h of treatment): 25 to 45 µM
2 | CCCN(CCC)c1cc(N)nc(Nc2ccc(Cl)cc2F)n1 [Compound 1f, N^2-(4-Chloro-2-fluorophenyl)-N^4,N^4-dipropylpyrimidine-2,4,6-triamine] | 50 | > 60 | 58 | 55 | 67 | 98 | 50 to 75 |  | 
3 | CCN(CC)CCCNc1cc(N)nc(Nc2cccc([N+](=O)[O-])c2)n1 [Compound 1d, N^4-(3-(Diethylamino)propyl)-N^2-(3-nitrophenyl)pyrimidine-2,4,6-triamine] | 40.4 | 54.9 | 49.2 | 35.3 | 46.8 | 97 |  |  | 
4 | COc1cccc(Nc2cc(N)nc(Nc3cccc(OC)c3)n2)c1 [Compound 3, N^2,N^4-bis(3-Methoxyphenyl)pyrimidine-2,4,6-triamine] | 11.7 | 22.9 | 10.2 | 10.4 |  | 65 |  | 28.2 | EC50 [3, 13]: 20.3 µM; EC50 ([4]; Homo sapiens, FaDu, 24 h): 42.1 µM; cytotoxic activity on normal somatic cells, not cytotoxic up to [5]: > 60 µM; EC50 ([6]; 48 h of treatment): ≤ 20 µM
5 | CCN(CC)CCCNc1cc(N)nc(Nc2cccc(F)c2)n1 [Compound 1b, N^4-(3-(Diethylamino)propyl)-N^2-(3-fluorophenyl)pyrimidine-2,4,6-triamine] | 29.8 | 47.3 | 35.7 | 20 | 43.4 | 88 |  |  | EC50 ([3]; 48 h): 20.3 µM
6 | CCCN(CCC)c1cc(N)nc(N(Cc2ccc(F)cc2)c2cccc(Cl)c2)n1 [Compound 2e, N^2-(3-Chlorophenyl)-N^2-(4-fluorobenzyl)-N^4,N^4-dipropylpyrimidine-2,4,6-triamine] | > 60 | > 60 | > 60 | 59.3 | > 60 |  | > 60 |  | 
7 | CN1CCN(c2cc(N)nc(Nc3cccc(Cl)c3)n2)CC1 [Compound 1g, N^2-(3-Chlorophenyl)-6-(4-methylpiperazin-1-yl)pyrimidine-2,4-diamine] | 60 | > 60 | 55 | 60 | 87 |  |  |  | 
8 | CCN(CC)CCCNc1cc(N)nc(N(Cc2ccc(F)cc2)c2cccc([N+](=O)[O-])c2)n1 [Compound 2d, N^4-(3-(Diethylamino)propyl)-N^2-(4-fluorobenzyl)-N^2-(3-nitrophenyl)pyrimidine-2,4,6-triamine] | 12.7 | 30.1 | 17.3 | 10.3 | 20.5 | 55.2 |  | 25.2 | 
9 | CCN(CC)CCCNc1cc(N)nc(N(Cc2ccc(F)cc2)c2cccc(OC)c2)n1 [Compound 2c, N^4-(3-(diethylamino)propyl)-N^2-(4-fluorobenzyl)-N^2-(3-methoxyphenyl)-pyrimidine-2,4,6-triamine] | 18.3 | 19.8 | 27.2 | 14.9 | 18 | 50.3 | 15 to 35 | 34.7 | EC50 ([4]; 48 h): 18.2 µM; folds more active than 3 ([4]; FaDu, 48 h of treatment, 2c vs 3): about 2.5 folds
10 | CCCN(CCC)c1cc(N)nc(Nc2cccc(Cl)c2)n1 [Compound 1e-HCl, N^2-(3-chlorophenyl)-N^4,N^4-dipropylpyrimidine-2,4,6-triamine hydrochloride] | 29.3 | 36.6 | 50.2 | 30.3 | 39.8 | > 60 |  |  | 
11 | CCN(CC)CCCNc1cc(N)nc(Nc2cccc(OC)c2)n1 [Compound 1c, N^4-(3-(Diethylamino)propyl)-N^2-(3-methoxyphenyl)pyrimidine-2,4,6-triamine] | 57 | > 60 | 70.5 | 57 | 71 |  | > 60 |  | 
12 | CCN(CC)CCCNc1cc(N)nc(N(Cc2ccc(F)cc2)c2cccc(F)c2)n1 [Compound 2b, N^4-(3-(diethylamino)propyl)-N^2-(4-fluorobenzyl)-N^2-(3-fluorophenyl)pyrimidine-2,4,6-triamine] | 10.4 | 17.7 | 7.3 | 5.1 | 23.8 | 54.7 |  | 20.2 | 
13 | CCCN(CCC)c1cc(N)nc(N(Cc2ccc(F)cc2)c2ccc(Cl)cc2F)n1 [Compound 2f, N^2-(4-Chloro-2-fluorophenyl)-N^2-(4-fluorobenzyl)-N^4,N^4-dipropylpyrimidine-2,4,6-triamine] | 30 | > 60 | 58.3 | 45 | > 60 |  |  |  | EC50 ([3]; 48 h): 45.4 µM
14 | CCN(CC)CCCNc1cc(N)nc(Nc2cccc(Cl)c2)n1 [Compound 1a, N^2-(3-Chlorophenyl)-N^4-(3-(diethylamino)propyl)pyrimidine-2,4,6-triamine] | 51.8 | > 60 | 34.8 | 54.2 | > 60 | > 60 |  |  | effect on cell cycle ([8]; 20 μM): upregulation of p21 and p27 and blockage of the cell cycle at G0/G1; induction of apoptosis ([8]; 30–50 μM): induced apoptosis
15 | CCN(CC)CCCNc1cc(N)nc(N(Cc2ccc(F)cc2)c2cccc(Cl)c2)n1 [Compound 2a, N^2-(3-chlorophenyl)-N^4-(3-(diethylamino)propyl)-N^2-(4-fluorobenzyl)pyrimidine-2,4,6-triamine] | 5.4 | 7.5 | 7.9 | 4.3 | 8.5 | 50.2 | 4 to 8 | 10.2 | EC50 ([1]; Homo sapiens, U-87 MG, 24 h): 22 µM; EC50 ([2]; Homo sapiens, MDA-MB-231, 24 h, 24 h): 18 µM; EC50 [3, 13]: 9.7 µM; EC50 ([4]; Homo sapiens, FaDu, 24 h): 26.2 µM; negative regulation of growth (cell viability, Figure 3) ([5]; 1, 10, 20, 50 μM, 24 h and 48 h, normal fibroblasts): only weakly significant and exclusively at high concentrations at 48 h; negative regulation of growth (cell viability, Figure 3) ([6]; 1, 10, 20, 50 μM, 24 h and 48 h, each tumor cell line): significant at various concentrations and times; EC50 ([6]; 24 h of treatment): 10 to 26 µM; EC50 ([6]; 48 h of treatment): 5 to 8 µM; fold more active than 1a ([6]; vs hit 1a (RDS 3442), all tested cell lines, 48 h of treatment): 4–13 fold
